The record followed here is patent publication EP1566447A1, “Glimepiride- and insulin-induced glycosylphosphatidylinositol-specific phospholipase C regulation” (priority 2004, dated 2005).

Structures are written as SMILES. “Also recorded” adds a separate entry of the source.

In general, IC50 refers to the concentration that gives 50% inhibition.

The test system of one experiment is rat liver PI-PLC. Kind of experiment: selectivity: mammalian PI-PLC assay. It is filed as biochemical. Conditions: 50 µM. On the procedure:
(§1) Hormone-sensitive lipase (HSL) and lipoprotein lipase (LPL) were measured using a radiolabeled triolein droplet emulsion as described in "Vertesy et al., (2002) Journal Antibiotics 55:480-494". Pancreatic lipase (PL) was determined by incubation of 0.25 mmol tributyrin in 2 ml of 5 mM Tris/HCl (pH 6.5), 6 mM sodium taurodeoxycholate, 150 mM NaCl, 1 mM CaCl2 with porcine PL and colipase in the same buffer using a recording pH stat (stirring at 1000 rpm at 25°C) with the pH adjusted to 6.5. PC-PLC was assayed by incubation of 0.2 ml of 10 mM dipalmitoyllecithin, 0.1 ml of 10 mM SDC and 0.1 ml of 0.03 M CaCl2 with bacterial PC-PLC (in 50 mM Tris/HCl, pH 7.5, 0.1 % BSA) for 10 min at 37°C. The reaction was terminated by addition of 0.1 ml of 50 % TCA and subsequently of 2.5 ml of […]. After centrifugation (1500xg, 15 min), 0.2-ml portions of the upper methanol/water phase (~ 1.33 ml) was removed, supplemented with 0.5 ml of 60 % HClO4, then heated at 170°C for 1 h and finally analyzed for inorganic phosphate. Mammalian PI-PLC was measured by incubation of 0.1 ml of 10 mM PI, 0.1 ml of 0.8 % sodium deoxycholate, 0.1 % BSA, 0.2 ml of 100 mM sodium borate (pH 7.5) and rat liver PI-PLC for 20 min at 37°C. The reaction was terminated and further processed as described for the PC-PLC. […] Radioactive phosphatidic acid was detected by phosphorimaging. […]

For a further experiment, the system named is cabbage PLD. The experiment can be described thus: selectivity: PLD assay. Conditions: 50 µM. The experiment is classed as biochemical. On the procedure:
as §1

In a further experiment the test system is Isolated rat adipocytes. The experiment can be described thus: localization of lipolytically cleaved and uncleaved GPI-proteins at hcDIGs, IcDIGs and total plasma membranes. It is filed as cell-based. Conditions: GPI-2350 50 µM, insulin 10 nM, glimepiride 20 µM.
Another experiment relates to caveolin-1. Kind of experiment: dissociation of signaling proteins from caveolin (caveolin-1 immunoprecipitates). It is filed as cell-based, rat. On the procedure: Solubilized DIGs (see above, 5-20 µg protein) were precleared by incubation with protein A/G-Sepharose and subsequent centrifugation (10,000xg, 5 min). The supernatant was incubated with anti-caveolin-1 antibodies (1:1000) preadsorbed on protein A/G-Sepharose in 1 ml of 10 mM Tris/HCl (pH 7.4), 150 mM NaCl, 1 % TX-100 for 1 h at 4°C. The immune complexes were washed twice with the same buffer and then twice with buffer lacking TX-1 00 and finally subjected to SDS-PAGE performed in the absence of β-mercaptoethanol. The recovery of immunoprecipitated caveolin was normalized by homologous immunoblotting with anti-caveolin antibodies of the same blot following stripping of the membrane.
Polypeptides separated by SDS-PAGE were transferred to polyvinylidene difluoride membranes using the semidry procedure as described in "Müller, G. et al., (2001) Mol. Cell. Biol. 21: 4553-4567". Washed membranes were incubated anti-caveolin-1 (1:2000), anti-pp59^Lyn (1:1250), anti-aP (1:500), anti-5'-Nuc (1:750) and anti-IRS-1 (1:2000) antibodies for 4 h at 15°C. Washed membranes were incubated with horseradish peroxidase-coupled secondary goat anti-mouse (1:2000) or goat anti-rabbit IgG (1:4000) antibodies. Labeled proteins were visualized by enhanced chemiluminescence.
Of signaling proteins from caveolin. […]

Setting [1] is: relative to amphiphilic version in PM of basal adipocytes (100).
[2] abbreviates: relative to amphiphilic version in hcDIGs of basal adipocytes (100).

As for `CCCCCCCCCCCCP1(=O)O[C@@H]2[C@H](O)[C@@H](O)[C@H](O)[C@@H](O)[C@@H]2O1` (mixture of isomers) [GPI-2350, myo-inositol-1,2-cyclo-dodecylphosphonic acid], in the experiment with rat liver PI-PLC, the “effect on phospholipase activity” value was “not significantly affected”. In addition, the “effect on phospholipase activity” value in the experiment on cabbage PLD is on record as “not significantly affected”. Besides, in the experiment on Isolated rat adipocytes (setting [1]), the “5'-Nuc hydroph. PM” value was determined as 3±2 arb. units, the “Gce1 hydroph. PM” value is given as 6±3 arb. units and the “aP hydroph. PM” value is reported as 4±3 arb. units. For the same compound, in the experiment on Isolated rat adipocytes (setting [2]), the “5'-Nuc amphiph IcDIGs” value was 15±6 arb. units, the “5'-Nuc amphiph hcDIGs” value is 112±19 arb. units, the “5'-Nuc hydroph. IcDIGs” value was 3±1 arb. units and the “5'-Nuc hydroph. hcDIGs” value was found to be 7±3 arb. units. Also, in the experiment with Isolated rat adipocytes (setting [2]), the “Gce1 amphiph IcDIGs” value is 28±6 arb. units, the “Gce1 amphiph hcDIGs” value was 109±10 arb. units, the “Gce1 hydroph. IcDIGs” value was found to be 14±7 arb. units and the “Gce1 hydroph. hcDIGs” value is listed as 21±7 arb. units. For the same compound, in the experiment with Isolated rat adipocytes (setting [2]), the “aP amphiph IcDIGs” value is listed as 19±13 arb. units and the “aP amphiph hcDIGs” value is recorded as 117±11 arb. units. Moreover, the “effect on induced dissociation of pp59^Lyn and Gce1 from caveolin” value in the experiment on caveolin-1 (50 µM, Fig. 6 Panel A) is listed as “almost complete blockade; also recorded: completely abrogated”. In the experiment on caveolin-1 (abrogation of insulin- and glimepiride-induced losses, Fig. 6 Panel B), the 50% inhibitory concentration (IC50) is 5 to 10 µM.
